This note sets out measurements from patent US11780823B2, “Indazole-3-carboxamides and their use as Wnt/β-catenin signaling pathway inhibitors” (BioSplice Therapeutics, Inc., priority 2011, dated 2023).

The structures appear in SMILES notation. pIC50: −log10 of the molar value. Bounds are passed on as bounds.

The assay relates to Wnt activity (wnt-responsive SP5 promoter luciferase reporter in SW480 cells). As to the kind of experiment: Wnt reporter screening assay: SP5 promoter-driven firefly luciferase in SW480 cells. It counts as cell-based. To be noted: Homo sapiens; SW480 colon cancer cells with SP5 promoter luciferase reporter; half-log dilutions, ten micromolar top concentration; read 24-40 h after compound addition; normalized to DMSO; read-out: Wnt inhibition. The text has this: Another screening assay for Wnt activity is described as follows. Reporter cell lines can be generated by stably transducing cells of cancer cell lines (e.g., colon cancer) with a lentiviral construct that include a wnt-responsive promoter driving expression of the firefly luciferase gene.
Lentiviral constructs can be made in which the SP5 promoter, a promoter having eight TCF/LEF binding sites derived from the SP5 promoter, is linked upstream of the firefly luciferase gene. The lentiviral constructs can also include a hygromycin resistance gene as a selectable marker. The SP5 promoter construct can be used to transduce SW480 cells, a colon cancer cell line having a mutated APC gene that generates a truncated APC protein, leading to de-regulated accumulation of β-catenin.
Cultured SW480 cells bearing a reporter construct can be distributed at approximately 10,000 cells per well into 96 well or 384 well plates. Compounds from a small molecule compound library can then be added to the wells in half-log dilutions using a ten micromolar top concentration. A series of control wells for each cell type receive only buffer and compound solvent. Twenty-four to forty hours after the addition of compound, reporter activity for luciferase can be assayed, for example, by addition of the BrightGlo luminescence reagent (Promega) and the Victor3 plate reader (Perkin Elmer). Readings can be normalized to DMSO only treated cells, and normalized activities can then be used in the IC50 calculations.

`O=C(Nc1ccc(Oc2cccc(F)c2)nc1)c1n[nH]c2ccc(-c3cccnc3)cc12` [Compound 19, N-(6-(3-Fluorophenoxy)pyridin-3-yl)-5-(pyridin-3-yl)-1H-indazole-3-carboxamide]: the pIC50 was 6.97. The same measure for `O=C(Nc1ccc(Oc2ccc(F)cc2)nc1)c1n[nH]c2ccc(-c3cccnc3)cc12` [Compound 20, N-(6-(4-Fluorophenoxy)pyridin-3-yl)-5-(pyridin-3-yl)-1H-indazole-3-carboxamide]: 6.93; for `O=C(Nc1cncc(F)c1)c1n[nH]c2ccc(-c3cccnc3)cc12` [Compound 23, N-(5-Fluoropyridin-3-yl)-5-(pyridin-3-yl)-1H-indazole-3-carboxamide]: 6.92; for `CN(C)Cc1cncc(-c2ccc3[nH]nc(C(=O)Nc4ccc(C(F)(F)F)nc4)c3c2)c1` [Compound 26, 5-(5-((Dimethylamino)methyl)pyridin-3-yl)-N-(6-(trifluoromethyl)pyridin-3-yl)-1H-indazole-3-carboxamide]: 6.68. To `O=C(Nc1cccnc1)c1n[nH]c2ccc(-c3cncc(NC(=O)N4CCOCC4)c3)cc12` [Compound 32, N-(5-(3-(Pyridin-3-ylcarbamoyl)-1H-indazol-5-yl)pyridin-3-yl) morpholine-4-carboxamide] belongs 5.90; to `CN(C)Cc1cncc(-c2ccc3[nH]nc(C(=O)Nc4ccc(Oc5ccccc5F)nc4)c3c2)c1` [Compound 36, 5-(5-((Dimethylamino)methyl)pyridin-3-yl)-N-(6-(2-fluorophenoxy)pyridin-3-yl)-1H-indazole-3-carboxamide], 6.56. The same measure for `Cn1nc(NC(=O)c2n[nH]c3ccc(-c4cccnc4)cc23)cc1C(F)(F)F` [Compound 37, N-(1-Methyl-5-(trifluoromethyl)-1H-pyrazol-3-yl)-5-(pyridin-3-yl)-1H-indazole-3-carboxamide]: 5.95. Take `CN1CCN(c2ccc(NC(=O)c3n[nH]c4ccc(-c5cncc(NC(=O)C6CC6)c5)cc34)cn2)CC1` [Compound 38, 5-(5-(Cyclopropanecarboxamido)pyridin-3-yl)-N-(6-(4-methylpiperazin-1-yl)pyridin-3-yl)-1H-indazole-3-carboxamide]: the pIC50 was 6.92. To `O=C(Nc1ccc(C(F)(F)F)nc1)c1n[nH]c2ccc(-c3cncc(NC(=O)C4CC4)c3)cc12` [Compound 39, 5-(5-(Cyclopropanecarboxamido)pyridin-3-yl)-N-(6-(trifluoromethyl)pyridin-3-yl)-1H-indazole-3-carboxamide] belongs 7.19. For `CN(C)Cc1cncc(-c2ccc3[nH]nc(C(=O)Nc4cccnc4)c3c2)c1` [Compound 40, 5-(5-((Dimethylamino)methyl)pyridin-3-yl)-N-(pyridin-3-yl)-1H-indazole-3-carboxamide], the pIC50 was 7.19.

On to `O=C(Nc1cccnc1)c1n[nH]c2ccc(-c3cncc(NC(=O)C4CC4)c3)cc12` [Compound 41, 5-(5-(Cyclopropanecarboxamido)pyridin-3-yl)-N-(pyridin-3-yl)-1H-indazole-3-carboxamide], for which the pIC50 was 7.17.

With `O=C(NCc1cccnc1)c1n[nH]c2ccc(-c3cccnc3)cc12` [Compound 42, 5-(Pyridin-3-yl)-N-(pyridin-3-ylmethyl)-1H-indazole-3-carboxamide], the pIC50 is 6.30. The same measure for `O=C(Nc1cccnc1)c1n[nH]c2ccc(-c3cncc(CN4CCCC4)c3)cc12` [Compound 43, N-(Pyridin-3-yl)-5-(5-(pyrrolidin-1-ylmethyl)pyridin-3-yl)-1H-indazole-3-carboxamide]: 7.20.

Turning to `CCOc1ccc(NC(=O)c2n[nH]c3ccc(-c4cncc(CN5CCCC5)c4)cc23)cn1` [Compound 44, N-(6-Ethoxypyridin-3-yl)-5-(5-(pyrrolidin-1-ylmethyl)pyridin-3-yl)-1H-indazole-3-carboxamide], the pIC50 was 6.80.

Take `CCOc1ccc(NC(=O)c2n[nH]c3ccc(-c4cncc(CN5CCCCC5)c4)cc23)cn1` [Compound 45, N-(6-Ethoxypyridin-3-yl)-5-(5-(piperidin-1-ylmethyl)pyridin-3-yl)-1H-indazole-3-carboxamide]: the pIC50 is 6.96. For `O=C(Nc1cccnc1)c1n[nH]c2ccc(-c3cncc(CN4CCCCC4)c3)cc12` [Compound 46, 5-(5-(Piperidin-1-ylmethyl)pyridin-3-yl)-N-(pyridin-3-yl)-1H-indazole-3-carboxamide], the pIC50 was 7.82. As to `O=C(Nc1cnccc1C(F)(F)F)c1n[nH]c2ccc(-c3cncc(CN4CCCCC4)c3)cc12` [Compound 47, 5-(5-(Piperidin-1-ylmethyl)pyridin-3-yl)-N-(4-(trifluoromethyl)pyridin-3-yl)-1H-indazole-3-carboxamide], the pIC50 was 7.15.

In the case of `O=C(Nc1cnccc1C(F)(F)F)c1n[nH]c2ccc(-c3cccnc3)cc12` [Compound 48, 5-(Pyridin-3-yl)-N-(4-(trifluoromethyl)pyridin-3-yl)-1H-indazole-3-carboxamide], the pIC50 was no more than 5.00. The same measure for `O=C(Nc1cccnc1)c1n[nH]c2ccc(-c3cccc(CN4CCCC4)c3)cc12` [Compound 49, N-(Pyridin-3-yl)-5-(3-(pyrrolidin-1-ylmethyl)phenyl)-1H-indazole-3-carboxamide]: 7.24; for `O=C(Nc1ccc(-c2ccccc2)nc1)c1n[nH]c2ccc(-c3cncc(CN4CCCC4)c3)cc12` [Compound 50, N-(6-Phenylpyridin-3-yl)-5-(5-(pyrrolidin-1-ylmethyl)pyridin-3-yl)-1H-indazole-3-carboxamide]: 7.15; for `O=C(Nc1cccnc1)c1n[nH]c2ccc(-c3ccc(N4CCCC4)nc3)cc12` [Compound 51, N-(Pyridin-3-yl)-5-(6-(pyrrolidin-1-yl)pyridin-3-yl)-1H-indazole-3-carboxamide]: 7.59. For the compound `N#Cc1ccc(NC(=O)c2n[nH]c3ccc(-c4cncc(CN5CCCC5)c4)cc23)cn1` [Compound 52, N-(6-Cyanopyridin-3-yl)-5-(5-(pyrrolidin-1-ylmethyl)pyridin-3-yl)-1H-indazole-3-carboxamide], the pIC50 was 7.24. As to `O=C(Nc1ccc(N2CCCC2)nc1)c1n[nH]c2ccc(-c3cccnc3)cc12` [Compound 53, 5-(Pyridin-3-yl)-N-(6-(pyrrolidin-1-yl)pyridin-3-yl)-1H-indazole-3-carboxamide], the pIC50 was 7.20. For the compound `COc1ccc(-c2ccc3[nH]nc(C(=O)Nc4cccnc4)c3c2)cn1` [Compound 54, 5-(6-Methoxypyridin-3-yl)-N-(pyridin-3-yl)-1H-indazole-3-carboxamide], the pIC50 was 6.80. The same measure for `O=C(Nc1cccnc1)c1n[nH]c2ccc(-c3cncc(Cc4ccccc4)c3)cc12` [Compound 55, 5-(5-Benzylpyridin-3-yl)-N-(pyridin-3-yl)-1H-indazole-3-carboxamide]: 7.36. The same measure for `O=C(Nc1cccnc1)c1n[nH]c2ccc(-c3cncc(Oc4ccccc4)c3)cc12` [Compound 56, 5-(5-Phenoxypyridin-3-yl)-N-(pyridin-3-yl)-1H-indazole-3-carboxamide]: 6.80; for `O=C(Nc1cnccc1C(F)(F)F)c1n[nH]c2ccc(-c3cncc(CN4CCCC4)c3)cc12` [Compound 57, 5-(5-(Pyrrolidin-1-ylmethyl)pyridin-3-yl)-N-(4-(trifluoromethyl)pyridin-3-yl)-1H-indazole-3-carboxamide]: no more than 5.00.

As to `O=C(Nc1cnccc1NC(=O)C1CC1)c1n[nH]c2ccc(-c3cccnc3)cc12` [Compound 58, N-(4-(Cyclopropanecarboxamido)pyridin-3-yl)-5-(pyridin-3-yl)-1H-indazole-3-carboxamide], the pIC50 was 7.15. The same measure for `O=C(NC1CCCCC1)c1cncc(-c2ccc3[nH]nc(C(=O)Nc4cccnc4)c3c2)c1` [Compound 59, 5-(5-(Cyclohexylcarbamoyl)pyridin-3-yl)-N-(pyridin-3-yl)-1H-indazole-3-carboxamide]: 5.51.

Turning to `CN1CCN(Cc2cc(F)cc(-c3ccc4[nH]nc(C(=O)Nc5cnccc5C(F)(F)F)c4c3)c2)CC1` [Compound 60, 5-(3-Fluoro-5-((4-methylpiperazin-1-yl)methyl)phenyl)-N-(4-(trifluoromethyl)pyridin-3-yl)-1H-indazole-3-carboxamide], the pIC50 was no more than 5.00. For `CN1CCN(Cc2cncc(-c3ccc4[nH]nc(C(=O)Nc5cccnc5)c4c3)c2)CC1` [Compound 61, 5-(5-((4-Methylpiperazin-1-yl)methyl)pyridin-3-yl)-N-(pyridin-3-yl)-1H-indazole-3-carboxamide], the pIC50 is 6.62.

For the compound `N#Cc1ccc(NC(=O)c2n[nH]c3ccc(-c4cncc(CN5CCCCC5)c4)cc23)cn1` [Compound 62, N-(6-cyanopyridin-3-yl)-5-(5-(piperidin-1-ylmethyl)pyridin-3-yl)-1H-indazole-3-carboxamide], the pIC50 was 7.80. The same measure for `O=C(Nc1ccc(C(F)(F)F)nc1)c1n[nH]c2ccc(-c3cncc(CN4CCCCC4)c3)cc12` [Compound 63, 5-(5-(Piperidin-1-ylmethyl)pyridin-3-yl)-N-(6-(trifluoromethyl)pyridin-3-yl)-1H-indazole-3-carboxamide]: 7.00.
